Measurements taken from US20160198747A1, “1H-PYRROLE-DICARBONYL-DERIVATIVES AND THEIR USE AS FLAVORING AGENTS” (IMAX DISCOVERY GMBH, priority 2013, published 2016).
Entries after “also recorded” stand apart in the source; their conditions may differ.

Assays:
[1] = as described in US 2009/0311401; cited from earlier work
[2] = test system: group of 16 trained panelists; assay: Sensory Test 2: trained panelists score a beef broth (bouillon) on eight descriptors; format: in vivo, human; conditions: scale 0 to 6, average of 16 panelists
Excerpt: A group of 16 trained panelists was instructed to evaluate the taste of a broth (bouillon) containing 0.5 wt. % of beef extract (Ref-beef) according to eight different descriptors in several repetitions. In a next step, these panelists were asked to rate said reference beef broth “Ref-beef” (presented at each testing session as a reference) against the following two different compositions consisting of “Ref-beef” and additionally a specific amount of the respective to be tested substance:
“Beef-I”=“Ref-beef”+10 ppm of the compound of Formula (I) of Synthesis Example 1,
“Beef-MSG”=“Ref-beef”+500 ppm (0.05 wt. %) of MSG
“Beef-MSG” was used as a positive umami standard.
The panelists judged the strength/intensity of the eight different descriptors in each case by awarding scores on a scale of from 0 (not corresponding to descriptor) to 6 (very strong). The results are present in the following table and FIGURE. All data are the averaged values for the group of 16 trained panelists for the respective scores for each descriptor.

[3] = stability to heat and to day-light; format: physicochemical
[4] = test system: bacterial strains of Salmonella typhimurium; assay: in vitro Ames plate incorporation test; format: cell-based
Excerpt: (§1) A particularly preferred compound of the invention is 4-ethyl 2-pyridin-2-ylmethyl-3,5-dimethyl-1H-pyrrole-2,4-dicarboxylate. […] It performs as a MSG replacer at the concentration of 4-20 ppm, depending on the application, whereas at the concentration of 0.5-10 ppm, depending on the application, it performs as a MSG enhancer. The compound is not mutagenic in a standard in vitro Ames plate incorporation test in bacterial strains of Salmonella typhimurium either in the absence or presence of metabolic activation.

[5] = test system: expert panel (8 panelists); assay: Sensory Test 1: expert panel, aqueous solution, sipping, holding 10 seconds, spitting out; format: in vivo, human
Experimental: An expert panel (8 panelists) evaluated the sensory properties of the compound of Formula (I) of Synthesis Example 1. The compound of Formula (I) of Synthesis Example 1 was first dissolved in ethanol and then added in the corresponding amount in water. The aqueous solution was evaluated by sipping, holding it in the mouth for 10 seconds, and then spitting it out. The description “accumulating” means that the flavor perception gradually (further) increases a few seconds after taking the solution into the mouth, often even some time after the solution has been spit out.

human sensory panel = human sensory panel (summary statement); format: in vivo
Excerpt: as §1

[6] = Sensory Test 3: Sip and Spit evaluation in water, bouillons, meat products and snacks; format: in vivo, human
Experimental: An additional sensory analysis was performed for the compound of Formula (I) of Synthesis Example 1, by “Sip and Spit” for all evaluations and the key results are summarized in the following table.

solubility = format: physicochemical
[7] = Beef-MSG = Ref-beef (broth, 0.5 wt. % beef extract) + 500 ppm (0.05 wt. %) MSG
[8] = Beef-I = Ref-beef (broth, 0.5 wt. % beef extract) + 10 ppm compound

## CCNC(=O)O[C@H]1C[C@H](C)CC[C@H]1C(C)C (racemic) [racemate of (1S,2S,5R)-2-isopropyl-5-methylcyclohexyl ethyl carbamate, (1S,2S,5R)-2-isopropyl-5-methylcyclohexyl ethyl carbamate]
[1]
  flavor profile: cooling, umami, menthol note

## N[C@@H](CCC(=O)O)C(=O)[O-].[Na+] [MSG, monosodium glutamate, reference compound]
[2]; [7]
  Long-lastingness score: 4.3
  Meaty score: 5.3
  Mouth-watering score: 4.4
  Mouthfeel score: 4.8
  Roasty score: 3.8
  Salty score: 2.5
  Sour score: 2.9
  Sweet score: 2.1

## CCOC(=O)c1c(C)[nH]c(C(=O)OCc2ccccn2)c1C [Synthesis Example 1, 3,5-dimethyl-1H-pyrrole-2,4-dicarboxylic acid, 4-ethyl 2-(2-pyridinylmethyl)ester]
[3]; day-light
  stability to day-light: stable
[3]; heat
  stability to heat: stable
[4]; absence of metabolic activation
  mutagenicity, Ames plate incorporation test: not mutagenic
[4]; presence of metabolic activation
  mutagenicity, Ames plate incorporation test: not mutagenic
[5]; 3 ppm + 0.05 wt. % MSG in water
  Description of sensory effects: Strong umami, meaty, mouthfeel,; also recorded: mouth-watering
[5]; 3 ppm in water
  Description of sensory effects: Strong umami, slightly metallic,; also recorded: some delay but lingering
[5]; 30 ppm + 0.05 wt. % MSG in water
  Description of sensory effects: Umami, meaty, accumulating
[5]; 30 ppm in water
  Description of sensory effects: Strong umami, long lasting
Human sensory panel
  after-taste or off notes: No after-taste or off notes are perceived
Human sensory panel; 3 ppm
  taste perception: very pleasant savory taste perception
[6]; 0.5 ppm in chicken bouillon + 0.01% MSG
  MSG ENHANCEMENT Chicken Bouillon + 0.01% MSG vs. 0.04% MSG, sensory description: warm, meaty; also recorded: fatty, slightly salty, round,; also recorded: slight sweet, good impact,
[6]; 3 ppm in salted water
  Performance in Salted Water, sensory description: clean, sweet umami, good
[6]; 3 ppm in water
  Performance in Water, sensory description: clean, sweet umami, good
[6]; 4 ppm in chicken bouillon
  MSG REPLACEMENT Chicken Bouillon vs. 0.04% MSG, sensory description: good, round, nice, clean
[6]; 6 ppm in sour cream & onion chips + 0.05% MSG
  MSG ENHANCEMENT Sour Cream & Onion Chips + 0.05% MSG vs. 0.4% MSG, sensory description: umami, pleasant, good
[6]; 10 ppm in crackers + 0.03% MSG
  MSG ENHANCEMENT Crackers + 0.03% MSG vs. 0.1% MSG, sensory description: umami, salivating, good
[6]; 10 ppm in marinated chicken + 0.05% MSG
  MSG ENHANCEMENT Marinated Chicken + 0.05% MSG vs. 0.3% MSG, sensory description: bad, eggy, white meat,; also recorded: malty
[6]; 10 ppm in pork burger + 0.03% MSG
  MSG ENHANCEMENT Pork Burger + 0.03% MSG vs. 0.1% MSG, sensory description: umami, sweet
[6]; 20 ppm in cocido ham
  MSG REPLACEMENT Cocido Ham vs. 0.1% MSG, sensory description: stronger, ok, meaty, sweet, and good
[6]; 20 ppm in marinated chicken
  MSG REPLACEMENT Marinated Chicken vs. 0.3% MSG, sensory description: meaty, umami balanced,; also recorded: seems salty
[6]; 20 ppm in sour cream & onion chips
  MSG REPLACEMENT Sour Cream & Onion Chips vs. 0.4% MSG, sensory description: umami balanced, pleasant,; also recorded: lingering, less salty, good,; also recorded: full, salivating, sweet, more; also recorded: creamy
[6]; chicken bouillon + 0.01% MSG, vs. 0.04% MSG
  MSG ENHANCEMENT Chicken Bouillon + 0.01% MSG vs. 0.04% MSG, concentration: 0.5 ppm
[6]; chicken bouillon, vs. 0.04% MSG
  MSG REPLACEMENT Chicken Bouillon vs. 0.04% MSG, concentration: 4 ppm
[6]; cocido ham, vs. 0.1% MSG
  MSG REPLACEMENT Cocido Ham vs. 0.1% MSG, concentration: 20 ppm
[6]; crackers + 0.03% MSG, vs. 0.1% MSG
  MSG ENHANCEMENT Crackers + 0.03% MSG vs. 0.1% MSG, concentration: 10 ppm
[6]; depending on the application
  concentration at which it performs as a MSG enhancer: 0.5-10 ppm
  concentration at which it performs as a MSG replacer: 4-20 ppm
[6]; marinated chicken + 0.05% MSG, vs. 0.3% MSG
  MSG ENHANCEMENT Marinated Chicken + 0.05% MSG vs. 0.3% MSG, concentration: 10 ppm
[6]; marinated chicken, vs. 0.3% MSG
  MSG REPLACEMENT Marinated Chicken vs. 0.3% MSG, concentration: 20 ppm
[6]; pork burger + 0.03% MSG, vs. 0.1% MSG
  MSG ENHANCEMENT Pork Burger + 0.03% MSG vs. 0.1% MSG, concentration: 10 ppm
[6]; pork burger, vs. 0.1% MSG
  MSG REPLACEMENT Pork Burger vs. 0.1% MSG, concentration: 20 ppm
[6]; sour cream & onion chips + 0.05% MSG, vs. 0.4% MSG
  MSG ENHANCEMENT Sour Cream & Onion Chips + 0.05% MSG vs. 0.4% MSG, concentration: 6 ppm
[6]; sour cream & onion chips, vs. 0.4% MSG
  MSG REPLACEMENT Sour Cream & Onion Chips vs. 0.4% MSG, concentration: 20 ppm
[2]; [8]
  Long-lastingness score: 5.4
  Meaty score: 5.5
  Mouth-watering score: 4.9
  Mouthfeel score: 5.5
  Roasty score: 3.9
  Salty score: 2.7
  Sour score: 2.9
  Sweet score: 1.5
solubility
  solubility: good solubility
